Assay results published in patent US20100267561A1, “HERBICIDAL PYRIDAZINONE DERIVATIVES” (priority 2007, published 2010).
Where two headings read alike, the source gives them in different places.

Experiments:
Experiment in all cases: Test A pre-/postemergence plant response
Assay type in all cases: in vivo
[1] = tested on: velvetleaf (Abutilon theophrasti)
Outline: (§1)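 Seeds were planted in blended loam soil and sand, then treated preemergence by directed soil spray. At that time, emerged plants (one- to two-leaf, 2–10 cm) received postemergence applications of the same surfactant-containing formulation. Injury was assessed visually on a 0–100 scale after approximately 10 days.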

[2] = tested on: giant foxtail (Setaria faberi); conditions: for pest or weed control at 31 g/ha / pest or weed control at 125 g/ha / pest or weed control at 500 g/ha: Setaria faberi, 240 h, read-out: Plant response rating, Foxtail, Giant; for pest or weed control at 500 g/ha: 500 g ai/ha
Outline: as §1

[3] = tested on: wheat (Triticum aestivum); conditions: for plant injury at 31 g/ha / plant injury at 125 g/ha / plant injury at 500 g/ha: Triticum aestivum, 240 h, read-out: Plant response rating, Wheat; for plant injury at 500 g/ha: 500 g ai/ha
Outline: as §1

[4] = Postemergence, 31 g ai/ha, 0 to 100 scale, 0 no effect, 100 complete control
[5] = Postemergence, 125 g ai/ha, 0 to 100 scale, 0 no effect, 100 complete control
[6] = Preemergence, 31 g ai/ha, 0 to 100 scale, 0 is no effect, 100 is complete control
[7] = Preemergence, 125 g ai/ha, 0 to 100 scale (0 no effect, 100 complete control)
[8] = post-emergence, Postemergence, 31 g ai/ha, 0 to 100 scale (0 no effect, 100 complete control)
[9] = post-emergence, Postemergence, 125 g ai/ha, 0 to 100 scale, 0 no effect, 100 complete control
[10] = pre-emergence, Preemergence, 31 g ai/ha, 0 to 100 scale, 0 is no effect, 100 is complete control
[11] = pre-emergence, Preemergence, 125 g ai/ha, 0 to 100 scale (0 no effect, 100 complete control)
[12] = post-emergence, Postemergence, 0 to 100 scale, 0 no effect, 100 complete control
[13] = pre-emergence, Preemergence, 0 to 100 scale (0 no effect, 100 complete control)

SMILES: Cc1cc(-c2ccc(Cl)cc2)nn1-c1c(OS(=O)(=O)C(C)C)cnn(C)c1=O [Compound 50]
- Plant response rating, Velvetleaf [1, 4]: 0
- Plant response rating, Velvetleaf [1, 5]: 0
- Plant response rating, Velvetleaf [1, 6]: 0
- Plant response rating, Velvetleaf [1, 7]: 0
- Plant response rating, Foxtail, Giant [2, 4]: 0
- Plant response rating, Foxtail, Giant [2, 5]: 60
- Plant response rating, Foxtail, Giant [2, 6]: 70
- Plant response rating, Foxtail, Giant [2, 7]: 90
- Plant response rating, Wheat [3, 4]: 0
- Plant response rating, Wheat [3, 5]: 20
- Plant response rating, Wheat [3, 6]: 0
- Plant response rating, Wheat [3, 7]: 50

SMILES: CCc1cc(-c2ccc(C(F)(F)F)cc2)nn1-c1c(O)c(OC)nn(C)c1=O [Compound 66]
- Plant response rating, Velvetleaf [1, 4]: 0
- Plant response rating, Velvetleaf [1, 5]: 0
- Plant response rating, Velvetleaf [1, 6]: 0
- Plant response rating, Velvetleaf [1, 7]: 0
- Plant response rating, Foxtail, Giant [2, 4]: 100
- Plant response rating, Foxtail, Giant [2, 5]: 100
- Plant response rating, Foxtail, Giant [2, 6]: 90
- Plant response rating, Foxtail, Giant [2, 7]: 100
- Plant response rating, Wheat [3, 4]: 90
- Plant response rating, Wheat [3, 5]: 100
- Plant response rating, Wheat [3, 6]: 60
- Plant response rating, Wheat [3, 7]: 90

SMILES: CCCc1cc(-c2ccc(Cl)cc2)nn1-c1c(O)cnn(C)c1=O [Compound 76]
- Plant response rating, Foxtail, Giant [2, 4]: 70
- Plant response rating, Foxtail, Giant [2, 5]: 90
- Plant response rating, Foxtail, Giant [2, 6]: 70
- Plant response rating, Foxtail, Giant [2, 7]: 100
- Plant response rating, Wheat [3, 4]: 20
- Plant response rating, Wheat [3, 5]: 50
- Plant response rating, Wheat [3, 6]: 0
- Plant response rating, Wheat [3, 7]: 0

SMILES: Cn1ncc(O)c(-c2nn(-c3ccc(C(F)(F)F)cc3)cc2Br)c1=O [Compound 87, 4-[4-bromo-1-[4-(trifluoromethyl)phenyl]-1H-pyrazol-3-yl]-5-hydroxy-2-methyl-3(2H)-pyridazinone]
- pest or weed control at 31 g/ha [2, 8]: 20%
- pest or weed control at 125 g/ha [2, 9]: 80%
- pest or weed control at 31 g/ha [2, 10]: 20%
- pest or weed control at 125 g/ha [2, 11]: 90%
- plant injury at 31 g/ha [3, 8]: 20%
- plant injury at 125 g/ha [3, 9]: 50%
- plant injury at 31 g/ha [3, 10]: 0%
- plant injury at 125 g/ha [3, 11]: 20%

SMILES: Cc1cc(-c2ccc(Br)cc2)nn1-c1c(O)cnn(C2CCCCO2)c1=O (stereo not drawn) [Compound 77, 4-[3-(4-bromophenyl)-5-methyl-1H-pyrazol-1-yl]-5-hydroxy-2-(tetrahydro-2H-pyran-2-yl)-3(2H)-pyridazinone]
- pest or weed control at 125 g/ha [2, 9]: 80%
- pest or weed control at 500 g/ha [2, 12]: 100%
- pest or weed control at 125 g/ha [2, 11]: 30%
- pest or weed control at 500 g/ha [2, 13]: 100%
- plant injury at 125 g/ha [3, 9]: 70%
- plant injury at 500 g/ha [3, 12]: 90%
- plant injury at 125 g/ha [3, 11]: 0%
- plant injury at 500 g/ha [3, 13]: 80%

SMILES: Cc1nn(C)c(=O)c(-n2nc(-c3ccc(Cl)cc3)cc2Cl)c1O [Compound 59]
- Plant response rating, Velvetleaf [1, 4]: 0
- Plant response rating, Velvetleaf [1, 5]: 0
- Plant response rating, Velvetleaf [1, 6]: 0
- Plant response rating, Velvetleaf [1, 7]: 0
- Plant response rating, Foxtail, Giant [2, 4]: 90
- Plant response rating, Foxtail, Giant [2, 5]: 90
- Plant response rating, Foxtail, Giant [2, 6]: 70
- Plant response rating, Foxtail, Giant [2, 7]: 90
- Plant response rating, Wheat [3, 4]: 0
- Plant response rating, Wheat [3, 5]: 60
- Plant response rating, Wheat [3, 6]: 0
- Plant response rating, Wheat [3, 7]: 50
